Results published in ChEMBL document CHEMBL1201862, “PubChem BioAssay data set” (2004).
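Tested at 5 concentrations; 48 h exposure; 96-well plates; endpoints linearly interpolated, else capped at highest concentration. The concentration for 50% growth inhibition is given as GI50.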 Calls of active or inactive are those of the source. No stated cut-off is given here; in the data, active = GI50 up to about 1.1 µM and inactive = higher.

Columns and labels:
Assay in all cases: growth of human tumour cells (NCI), 48 h
COLO 205 = tested on: COLO 205
UO-31 = tested on: UO-31
OVCAR-5 = tested on: OVCAR-5
NCI-H460 = tested on: NCI-H460
IGROV-1 = tested on: IGROV-1
SK-MEL-5 = tested on: SK-MEL-5
RPMI-8226 = tested on: RPMI-8226
MDA-N = tested on: MDA-N
HT-29 = tested on: HT-29
ACHN = tested on: ACHN
CCRF-CEM = tested on: CCRF-CEM
HOP-92 = tested on: HOP-92
A549 = tested on: A549
Malme-3M = tested on: Malme-3M
HCT-15 = tested on: HCT-15
UACC-257 = tested on: UACC-257
RXF 393 = tested on: RXF 393
SR = tested on: SR
MOLT-4 = tested on: MOLT-4
EKVX = tested on: EKVX

Structure (SMILES)	GI50 (COLO 205)	GI50 (UO-31)	GI50 (OVCAR-5)	GI50 (NCI-H460)	GI50 (IGROV-1)	GI50 (SK-MEL-5)	GI50 (RPMI-8226)	GI50 (MDA-N)	GI50 (HT-29)	GI50 (ACHN)	GI50 (CCRF-CEM)	GI50 (HOP-92)	GI50 (A549)	GI50 (Malme-3M)	GI50 (HCT-15) [µM]	GI50 (UACC-257)	GI50 (RXF 393)	GI50 (SR)	GI50 (MOLT-4)	GI50 (EKVX)
CC1(C)COCN1COC1CCCCC1	> 100 µM (inactive)	> 100 µM (inactive)	> 100 µM (inactive)	> 100 µM (inactive)	> 100 µM (inactive)	> 100 µM (inactive)	> 100 µM (inactive)	> 100 µM (inactive)	> 100 µM (inactive)	> 100 µM (inactive)	4.91 µM (inactive)	> 100 µM (inactive)	> 100 µM (inactive)	> 100 µM (inactive)	> 100	> 100 µM (inactive)	> 100 µM (inactive)	20.1 µM (inactive)	24.1 µM (inactive)	> 100 µM (inactive)
CC(=O)c1c2c(cc3c1CC1(C3)Cc3ccc4c(c3C1=O)CCC4)CCC2 (stereo not given)	11 µM (inactive)	55.5 µM (inactive)	> 100 µM (inactive)	38.6 µM (inactive)	87.3 µM (inactive)	13.4 µM (inactive)	13.5 µM (inactive)	13.8 µM (inactive)	11.8 µM (inactive)	65.3 µM (inactive)	19.3 µM (inactive)	8.85 µM (inactive)	21.5 µM (inactive)	30.6 µM (inactive)	16.1	2.75 µM (inactive)	9.64 µM (inactive)	4.61 µM (inactive)	22.3 µM (inactive)	7.13 µM (inactive)
O=C(O)C(Cc1ccccc1)NCc1c(O)ccc2c(-c3ccccc3)cc(=O)oc12 (stereo not given)	> 100 µM (inactive)	> 100 µM (inactive)	> 100 µM (inactive)	> 100 µM (inactive)	> 100 µM (inactive)	> 100 µM (inactive)	> 100 µM (inactive)	> 100 µM (inactive)	> 100 µM (inactive)	> 100 µM (inactive)	> 100 µM (inactive)	> 100 µM (inactive)	> 100 µM (inactive)	> 100 µM (inactive)	> 100	> 100 µM (inactive)	> 100 µM (inactive)	> 100 µM (inactive)	> 100 µM (inactive)	> 100 µM (inactive)
O=C(O)C1Cc2c([nH]c3ccccc23)C(CCCCO)N1 (stereo not given)	> 100 µM (inactive)	> 100 µM (inactive)	> 100 µM (inactive)	> 100 µM (inactive)	> 100 µM (inactive)	> 100 µM (inactive)	> 100 µM (inactive)	> 100 µM (inactive)	> 100 µM (inactive)	> 100 µM (inactive)	> 100 µM (inactive)	> 100 µM (inactive)	> 100 µM (inactive)	> 100 µM (inactive)	> 100	> 100 µM (inactive)	> 100 µM (inactive)	> 100 µM (inactive)	> 100 µM (inactive)	> 100 µM (inactive)
NS(=O)(=O)c1ccc(NC(=O)c2ccc3nc4ccccc4c(Nc4ccc(S(N)(=O)=O)cc4)c3c2)cc1	> 100 µM (inactive)	> 100 µM (inactive)	> 100 µM (inactive)	8.75 µM (inactive)	> 100 µM (inactive)	> 100 µM (inactive)	> 100 µM (inactive)	> 100 µM (inactive)	> 100 µM (inactive)	> 100 µM (inactive)	> 100 µM (inactive)	> 100 µM (inactive)	> 100 µM (inactive)	> 100 µM (inactive)	> 100	> 100 µM (inactive)	> 100 µM (inactive)	> 100 µM (inactive)	> 100 µM (inactive)	> 100 µM (inactive)
S=C(N/N=C(/c1ccccc1)c1ccccn1)N(Cc1ccccn1)Cc1ccccn1	< 0.0157 µM (active)	0.356 µM (active)	0.427 µM (active)	0.116 µM (active)	< 0.01 µM (active)	0.358 µM (active)	< 0.0302 µM (active)	1.31 µM (inactive)	< 0.01 µM (active)	0.0418 µM (active)	< 0.01 µM (active)	0.174 µM (active)	0.435 µM (active)	0.0655 µM (active)	0.102	0.0425 µM (active)	1 µM (active)	0.906 µM (active)	< 0.0302 µM (active)	0.0608 µM (active)
COC(=O)c1cc2c(cc1Cl)Sc1nnc(Nc3ccc(C)cc3)n1S2(=O)=O	4.84 µM (inactive)	10.5 µM (inactive)	17.1 µM (inactive)	11.6 µM (inactive)	2.15 µM (inactive)	13.8 µM (inactive)	2.17 µM (inactive)	6.44 µM (inactive)	3.92 µM (inactive)	3.48 µM (inactive)	3.78 µM (inactive)	3.66 µM (inactive)	15.4 µM (inactive)	11 µM (inactive)	3.97	12.2 µM (inactive)	3.94 µM (inactive)	2.12 µM (inactive)	2.94 µM (inactive)	12.9 µM (inactive)
CC(C)(C)C1=CC(=C2C=Cc3ccccc3O2)C=C(C(C)(C)C)C1=O	2.18 µM (inactive)	4.68 µM (inactive)	6.7 µM (inactive)	1.6 µM (inactive)	6.53 µM (inactive)	3.81 µM (inactive)	2.15 µM (inactive)	2.31 µM (inactive)	3.76 µM (inactive)	5.51 µM (inactive)	2.09 µM (inactive)	13.9 µM (inactive)	4.16 µM (inactive)	3.81 µM (inactive)	3.13	3.61 µM (inactive)	2.25 µM (inactive)	1.85 µM (inactive)	1.73 µM (inactive)	6.59 µM (inactive)
O=C(NCCO)c1c(O)c2ccccc2[nH]c1=O	> 100 µM (inactive)	83.6 µM (inactive)	> 100 µM (inactive)	> 100 µM (inactive)	> 100 µM (inactive)	> 100 µM (inactive)	> 100 µM (inactive)	> 100 µM (inactive)	> 100 µM (inactive)	> 100 µM (inactive)	> 100 µM (inactive)	> 100 µM (inactive)	> 100 µM (inactive)	> 100 µM (inactive)	62.2	> 100 µM (inactive)	> 100 µM (inactive)	> 100 µM (inactive)	> 100 µM (inactive)	69.5 µM (inactive)
O=C1C=CC(=O)C(N(CCO)CCO)=C1.O=C1C=CC2(O)OCCN(CCO)C2=C1	> 100 µM (inactive)	> 100 µM (inactive)	> 100 µM (inactive)	> 100 µM (inactive)	> 100 µM (inactive)	> 100 µM (inactive)	91.6 µM (inactive)	> 100 µM (inactive)	> 100 µM (inactive)	> 100 µM (inactive)	> 100 µM (inactive)	> 100 µM (inactive)	> 100 µM (inactive)	> 100 µM (inactive)	> 100	> 100 µM (inactive)	> 100 µM (inactive)	34.8 µM (inactive)	> 100 µM (inactive)	> 100 µM (inactive)
CCCCCCCCCCOCCOCCOCCOCCCCC(O)CCCCCCCC1=C[C@H](C)OC1=O (stereo not given in full)	15.2 µM (inactive)	7.78 µM (inactive)	15.7 µM (inactive)	7.89 µM (inactive)	14.4 µM (inactive)	0.76 µM (active)	0.933 µM (active)	11.6 µM (inactive)	10.7 µM (inactive)	11.7 µM (inactive)	2.79 µM (inactive)	14.2 µM (inactive)	9.31 µM (inactive)	19.6 µM (inactive)	12.7	9.14 µM (inactive)	10.9 µM (inactive)	0.671 µM (active)	2.83 µM (inactive)	10.7 µM (inactive)
